Laboratory results from paper PMC8145704, “Conformational Plasticity of Hepatitis B Core Protein Spikes Promotes Peptide Binding Independent of the Secretion Phenotype” (Microorganisms, 2021).
Entries after “also recorded” stand apart in the source; their conditions may differ. Like-named read-outs stand apart in the source and are kept apart here. Ends that are not written are not given here.

Tests used:
[1] = target: T1, WT-HBc capsids (hepatitis B core protein) (Hepatitis B virus genotype D subtype ayw, UniProt P03146); type: binding, Hepatitis B virus (genotype D; strain ayw); settings: for KD: N-terminally unmodified, terminally amidated peptides, dnb = did not bind HBc, SLLGRM fitted with stoichiometry fixed to 0.25
T1 construct: these predictions are also valid for full-length variants with randomly packaged host–RNA; made in house; host or cells: E. coli BL21 (DE3) Star

WT-HBc capsids = settings: GRMKG added at 10-fold molar excess; SLLGRM sample taken at the end of the ITC experiment (more than 95% of binding sites occupied)
[2] = for solubility (soluble up to): no buffer stated at this place, peptides were dissolved in ITC dialysis buffer, pH 7.5
F97L-HBc capsids = F97L-HBc capsids (Hepatitis B virus genotype D subtype ayw, UniProt P03146, F97L); assay: Isothermal titration calorimetry (ITC) of peptide binding to F97L-HBc capsids; parameters: species or system Hepatitis B virus (genotype D; strain ayw); settings: 20 °C, ITC buffer 2, mean ± SD of 5 repeats
P5T-HBc capsids = P5T-HBc capsids (Hepatitis B virus genotype D subtype ayw, UniProt P03146, P5T); assay: Isothermal titration calorimetry (ITC) of peptide binding to P5T-HBc capsids; parameters: species or system Hepatitis B virus (genotype D; strain ayw); settings: 20 °C, ITC buffer 2, mean ± SD of 6 repeats
L60V-HBc capsids = L60V-HBc capsids (Hepatitis B virus genotype D subtype ayw, UniProt P03146, L60V); assay: Isothermal titration calorimetry (ITC) of peptide binding to L60V-HBc capsids; parameters: species or system Hepatitis B virus (genotype D; strain ayw); settings: 20 °C, ITC buffer 2, stoichiometry fixed to 0.5, mean ± SD of 3 repeats
[3] = ITC, 20 °C, ITC buffer 2, single repeat, ± fit error
[4] = ITC, 37 °C, ITC buffer 1, single repeat, ± fit error
[5] = ITC, 20 °C, ITC buffer 2, mean ± SD of 6 repeats

SLKGRM
KD [1, 3]: no binding detected and dnb

SLLGEM
KD [1, 3]: no binding detected and dnb

SLLGRM-NH2 [SLLGRM]
association of peptide with capsids in the cryo-EM map (WT-HBc capsids): only the CD spikes bound
∆ST ([1]; ITC, 20 °C, ITC buffer 2, stoichiometry fixed to 0.25, single repeat): -3.2 kcal/mol
∆H ([1]; ITC, 20 °C, ITC buffer 2, stoichiometry fixed to 0.25, single repeat, ± fit error): -8.3 ± 0.2 kcal/mol

CSCC[C@H](NC(=O)[C@H](CCCNC(=N)N)NC(=O)CNC(=O)[C@H](CC(C)C)NC(=O)[C@H](CC(C)C)NC(=O)[C@H](CO)NC(=O)[C@H](CCCNC(=N)N)NC(=O)[C@H](Cc1c[nH]cn1)NC(=O)[C@@H](N)CCSC)C(=O)N[C@@H](CCCCN)C(=O)NCC(=O)N[C@@H](C)C(N)=O [P1]
∆ST ([1]; ITC, 37 °C, ITC buffer 1, single repeat): -2.5 kcal/mol
Ratio Peptide/HBc [1, 4]: 0.45 ± 0.02
∆H [1, 4]: -9.0 ± 0.6 kcal/mol
aggregation of HBc capsids caused by the peptide ([1]; in words, endothermic contribution at higher P1 concentrations in ITC (37 °C, ITC buffer 1) attributed to aggregation): aggregation of P1 and capsids; also recorded: causes aggregation of HBc capsids
solubility (soluble up to) [2]: up to 8 mM

GRMKG
association of peptide with capsids in the cryo-EM map (WT-HBc capsids): no association
KD [1, 3]: no measurable affinity and dnb

CSCC[C@H](NC(=O)[C@H](CCCNC(=N)N)NC(=O)CNC(=O)[C@H](CC(C)C)NC(=O)[C@H](CC(C)C)NC(=O)[C@H](CO)NC(=O)CN)C(=O)N[C@@H](CCCCN)C(=O)NCC(=O)N[C@@H](C)C(N)=O [P2]
∆H [1, 5]: -14.4 ± 1.6 kcal/mol
∆ST [1, 5]: -8.8 ± 1.6 kcal/mol
∆H (F97L-HBc capsids): -9.9 ± 1.0 kcal/mol
∆ST (F97L-HBc capsids): -4.7 ± 0.9 kcal/mol
∆H (P5T-HBc capsids): -7.7 ± 0.8 kcal/mol
∆ST (P5T-HBc capsids): -2.1 ± 0.9 kcal/mol
solubility compared with the other peptide, in words ([2]; P2 compared with the longer P1): better soluble
solubility (soluble up to) [2]: up to 8 mM
∆H (L60V-HBc capsids): -6.6 ± 1.2 kcal/mol
∆ST (L60V-HBc capsids): -1.4 ± 1.3 kcal/mol
